Each compound was assayed on Human Umbilical Vein Endothelial cells (assay: HUVEC proliferation assay (VEGF-stimulated)). Settings: 72 h, CyQuant, read-out: inhibition of VEGF-stimulated HUVEC proliferation.
Assay type: cell-based
Experimental: Human Umbilical Vein Endothelial cells are purchased from Clonetics, Inc., as cryopreserved cells harvested from a pool of donors. These cells, at passage 1, are thawed and expanded in EBM-2 complete medium, until passage 2 or 3. The cells are trypsinized, washed in DMEM+10% FBS+antibiotics, and spun at 1000 rpm for 10 min. Prior to centrifugation of the cells, a small amount is collected for a cell count. After centrifugation, the medium is discarded, and the cells are resuspended in the appropriate volume of DMEM+10% FBS+antibiotics to achieve a concentration of 3×10^5 cells/mL. Another cell count is performed to confirm the cell concentration. The cells are diluted to 3×10^4 cells/mL in DMEM+10% FBS+antibiotics, and 100 μL of cells are added to a 96-well plate. The cells are incubated at 37° C. for 22 h.
Prior to the completion of the incubation period, compound dilutions are prepared. Five-point, five-fold serial dilutions are prepared in DMSO, at concentrations 400-fold greater than the final concentrations desired. 2.5 μL of each compound dilution are diluted further in a total of 1 mL DMEM+10% FBS+antibiotics (400× dilution). Medium containing 0.25% DMSO is also prepared for the 0 μM compound sample. At the 22 h timepoint, the medium is removed from the cells, and 100 μL of each compound dilution is added. The cells are incubated at 37° C. for 2-3 h.
During the compound pre-incubation period, the growth factors are diluted to the appropriate concentrations. Solutions of DMEM+10% FBS+antibiotics, containing either VEGF or bFGF at the following concentrations: 50, 10, 2, 0.4, 0.08, and 0 ng/mL are prepared. […]
At the completion of the 72 h incubation period, the medium is removed, and the cells are washed twice with PBS. […] The cells are thawed and analyzed using the CyQuant fluorescent dye (Molecular Probes C-7026), following the manufacturer's recommendations. The plates are read on a Victor/Wallac 1420 workstation at 485 nm/530 nm (excitation/emission). Raw data are collected and analyzed using a 4-parameter fit equation in XLFit. IC50 values are then determined.
In the case of `CC(C)(C)c1ccc(-n2ncc3cccc(NCc4ccncc4)c3c2=O)cc1` [Example 1, 2-(4-(1,1-Dimethylethyl)phenyl)-8-((4-pyridinylmethyl)amino)-1(2H)-phthalazinone], the IC50 is reported as < 0.5 µM. With `CC(C)(C)c1ccc(N2CCc3cccc(NCc4ccncc4)c3C2=O)cc1` [Example 3, 2-(4-(1,1-Dimethylethyl)phenyl)-8-((4-pyridinylmethyl)amino)-3,4-dihydro-1(2H)-isoquinolinone] the IC50 was < 0.5 µM. With `CC(C)(C)c1ccc(-n2ncc3cccc(NCc4c[nH]c5ncccc45)c3c2=O)cc1` [Example 2, 2-(4-(1,1-Dimethylethyl)phenyl)-8-((1H-pyrrolo[2,3-b]pyridin-3-ylmethyl)amino)-1(2H)-phthalazinone] the IC50 was < 0.5 µM.

From US7390820B2, “Substituted quinolinone derivatives and methods of use” (Amgen Inc., priority 2003, dated 2008)
